Article PMC4205912, “Sea foam as a source of fungal inoculum for the isolation of biologically active natural products” (Mycology, 2014)
≈ marks a conversion by molar mass, not a printed value.

What was measured:
stromelysin = system: stromelysin; design: method as in Harris et al. [1993]; conditions: ref Harris et al. [1993]; read-out: IC50, inhibition of cleavage of β-casein by stromelysin; cited from earlier work
S. warneri ATCC 17917 = assay: microbroth antibiotic susceptibility testing, S. warneri; assay type: cell-based; conditions: triplicate, averaged, 22 h at 37°C
Procedure: (§1) All microbroth antibiotic susceptibility testing was carried out in triplicate in 96-well plates in accordance with Clinical Laboratory Standards Institute testing standards (NCCLS, [2003]) using the following pathogens: MRSA ATCC 33591 (MRSA), S. warneri ATCC 17917, VRE EF379 (VRE), Pseudomonas aeruginosa ATCC 14210, Proteus vulgaris ATCC 12454, and Candida albicans ATCC 14035. Extract fractions were assayed at 250 µg/mL while pure compounds were serially diluted to generate a range of 12 concentrations (128–0.0625 µg/mL) in a final well volume concentration of 2% DMSO(aq). […] The optical density of the plate was recorded using a Thermo Scientific Varioskan Flash plate reader at 600 nm at time zero and then again after incubation of the plates for 22 h at 37°C. After subtracting the time zero OD600 from the final reading, the percentages of microorganism survival relative to vehicle control wells were calculated.

[1] = system: Pseudomonas aeruginosa ATCC 14210; assay: microbroth antibiotic susceptibility testing, P. aeruginosa; assay type: cell-based; conditions: triplicate, averaged, 22 h at 37°C
Procedure: as §1

[2] = system: Human foreskin BJ fibroblast cells (ATCC CRL-2522); assay: cytotoxicity assay (Alamar blue), fibroblasts; assay type: cell-based; conditions: Homo sapiens; BJ cells, 24 h; read-out: Fibroblast IC50
Procedure: (§2) Human foreskin BJ fibroblast cells (ATCC CRL-2522), adult human epidermal keratinocytes (HEKa), and human breast adenocarcinoma cells (ATCC HTB-26) were grown to 80% confluency (growth conditions are provided in Supplementary Materials and Methods), the cells were counted, diluted, and plated into treated 96-well cell culture plates. The BJ fibroblast and HEKa cells were plated at a cell density of 10,000 cells per well and the HTB-26 cells were plated at cell density of 5000 cells per well in 90 µL of respective growth medium (without the addition of antibiotics) and incubated for 24 h to allow cells to adhere to the plates before treatment. Pure compounds were tested in triplicate in serial dilutions of eight concentrations ranging from 128 µg/mL to 1 µg/mL per well (final well volume of 100 µL, 1% DMSO per well). Each of the cell lines were incubated at 37°C in a humidified atmosphere of 5% CO2; the BJ fibroblast and HEKa cells for 24 h and the HTB-26 cells for 72 h. Each plate contained four uninoculated positive controls, four untreated negative controls, and one column containing a concentration range of zinc pyrithione or doxorubicin. Alamar blue was added, 24 h after the treatment, and fluorescence was monitored using a Thermo Scientific Varioskan Flash plate reader at 560/12 excitation, 590 nm emission both at time zero and 4 h after Alamar blue addition. The inferred percentage of cell viability relative to vehicle control wells were calculated after subtracting the time zero emission 590 nm measurement from the final reading and the IC50 was determined.

[3] = system: Candida albicans ATCC 14035; assay: microbroth susceptibility testing, C. albicans; assay type: cell-based; conditions: triplicate, averaged, 22 h at 37°C
Procedure: as §1

[4] = system: erythropoietin gene expression; design: method as in Cai et al. [1998]; conditions: at a concentration of 1–1.6 µM; ref Cai et al. [1998]; cited from earlier work
MRSA ATCC 33591 = assay: microbroth antibiotic susceptibility testing, MRSA; assay type: cell-based, methicillin-resistant Staphylococcus aureus; conditions: triplicate, averaged, 22 h at 37°C
Procedure: as §1

[5] = system: Proteus vulgaris ATCC 12454; assay: microbroth antibiotic susceptibility testing, P. vulgaris; assay type: cell-based; conditions: triplicate, averaged, 22 h at 37°C
Procedure: as §1, with “14035.” for “14035. Extract fractions were assayed at 250 µg/mL while pure compounds were serially diluted to generate a range of 12 concentrations (128–0.0625 µg/mL) in a final well volume concentration of 2% DMSO(aq).”

VRE EF379 = assay: microbroth antibiotic susceptibility testing, VRE; assay type: cell-based, vancomycin-resistant Enterococcus faecium; conditions: triplicate, averaged, 22 h at 37°C
Procedure: as §1

[6] = system: adult human epidermal keratinocytes (HEKa); assay: cytotoxicity assay (Alamar blue), keratinocytes; assay type: cell-based; conditions: HeKa cells, 24 h
Procedure: as §2

[7] = system: adult human epidermal keratinocytes (HEKa); assay: cytotoxicity assay (Alamar blue), keratinocytes; assay type: cell-based; conditions: HeKa cells, 24 h; remark: listed apart in the source
[8] = Pseudomonas aeruginosa, ATCC14210

## Cc1cc(=O)c(O)cc2c1C[C@H]1CC(C)(C)/C=C/C[C@@]3(C)Oc4cc(O)c(=O)cc(C)c4C[C@@H]3C[C@H](O)[C@]1(C)O2 [Pycnidione, pycnidione]
stromelysin
  IC50: 31 µM
S. warneri ATCC 17917; Staphylococcus warneri, ATCC17917, read-out: S. warneri IC50
  IC50: 12 µg/mL (≈ 21.9 µM)
S. warneri ATCC 17917; Staphylococcus warneri, ATCC17917, read-out: S. warneri MIC
  MIC: 64 µg/mL (≈ 117 µM)
[1]; [8]
  IC50: > 128 µg/mL
  MIC: > 128 µg/mL
[2]
  IC50: 11 µg/mL (≈ 20 µM)
[3]; Candida albicans, ATCC14035
  IC50: 5 µg/mL (≈ 9.11 µM)
  MIC: 8 µg/mL (≈ 14.6 µM)
[4]
  induction of erythropoietin gene expression: five-fold
MRSA ATCC 33591; Staphylococcus aureus, read-out: MRSA IC50
  IC50: 12 µg/mL (≈ 21.9 µM)
MRSA ATCC 33591; Staphylococcus aureus, read-out: MRSA MIC
  MIC: 16 µg/mL (≈ 29.2 µM)
[5]; Proteus vulgaris, ATCC12454
  IC50: 30 µg/mL (≈ 54.7 µM)
  MIC: 64 µg/mL (≈ 117 µM)
VRE EF379; Enterococcus, VRE, read-out: VRE IC50
  IC50: 46 µg/mL (≈ 83.8 µM)
VRE EF379; Enterococcus, VRE, read-out: VRE MIC
  MIC: 64 µg/mL (≈ 117 µM)
[6]; Homo sapiens, read-out: Keratinocyte IC50
  IC50: 15 µg/mL (≈ 27.3 µM)

## coniothyrione
[7]
  Keratinocyte MIC: 64 µg/mL
S. warneri ATCC 17917
  S. warneri IC50: 12 µg/mL
  S. warneri MIC: 16 µg/mL
[1]
  P. aeruginosa IC50: >64 µg/mL
  P. aeruginosa MIC: >64 µg/mL
[3]
  C. albicans IC50: >64 µg/mL
  C. albicans MIC: >64 µg/mL
MRSA ATCC 33591
  MRSA IC50: 8 µg/mL
  MRSA MIC: 16 µg/mL
[5]
  P. vulgaris IC50: 30 µg/mL
  P. vulgaris MIC: >64 µg/mL
VRE EF379
  VRE IC50: 4 µg/mL
  VRE MIC: 16 µg/mL
[6]
  Keratinocyte IC50: 5 µg/mL
